Laboratory results reported in ChEMBL document CHEMBL1909046, “DrugMatrix in vitro pharmacology data”.

What was measured:
[1] = biological target: Sigma non-opioid intracellular receptor 1 (Homo sapiens, UniProt Q99720); experiment: DRUGMATRIX: Sigma1 radioligand binding (ligand: [3H] Haloperidol); assay type: cell membranes, Jurkat, Membrane; details: Not Active = under 50% inhibition at 10 µM
Vasopressin V1a receptor = Vasopressin V1a receptor (Homo sapiens, UniProt P37288); assay type: cell membranes, Membrane; details: hek293; also: in other assays of this panel Not Active means under 50% inhibition at 10 µM
Chain of Vasopressin V1a receptor (P37288 whole entry): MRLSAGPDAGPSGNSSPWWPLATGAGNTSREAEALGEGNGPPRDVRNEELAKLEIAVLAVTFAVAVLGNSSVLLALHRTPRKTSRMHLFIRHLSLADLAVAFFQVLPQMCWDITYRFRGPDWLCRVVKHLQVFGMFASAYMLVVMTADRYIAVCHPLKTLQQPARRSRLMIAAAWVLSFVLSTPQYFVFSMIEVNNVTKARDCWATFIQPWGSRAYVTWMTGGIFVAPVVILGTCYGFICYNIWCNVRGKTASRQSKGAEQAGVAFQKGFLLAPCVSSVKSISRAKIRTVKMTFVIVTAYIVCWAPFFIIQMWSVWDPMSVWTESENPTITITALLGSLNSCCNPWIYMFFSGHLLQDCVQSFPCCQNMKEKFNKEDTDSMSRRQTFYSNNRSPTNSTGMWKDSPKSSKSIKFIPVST

[2] = biological target: T1, C-X-C chemokine receptor type 1 (Homo sapiens, UniProt P25024); also: in other assays of this panel Not Active means under 50% inhibition at 10 µM
T1 sequence (P25024 whole entry): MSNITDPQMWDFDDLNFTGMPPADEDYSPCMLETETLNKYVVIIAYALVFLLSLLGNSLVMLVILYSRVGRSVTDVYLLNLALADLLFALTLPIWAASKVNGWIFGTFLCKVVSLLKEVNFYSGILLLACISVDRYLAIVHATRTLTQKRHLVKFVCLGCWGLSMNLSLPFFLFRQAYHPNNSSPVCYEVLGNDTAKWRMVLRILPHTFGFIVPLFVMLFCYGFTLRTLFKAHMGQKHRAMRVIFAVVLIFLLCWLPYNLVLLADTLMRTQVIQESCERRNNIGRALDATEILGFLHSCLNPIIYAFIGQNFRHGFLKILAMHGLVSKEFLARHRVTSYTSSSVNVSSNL

[3] = DRUGMATRIX: Glutamate, NMDA, Agonism radioligand binding (ligand: [3H] CGP-39653); assay type: cell membranes, Rattus norvegicus, Wistar, Cerebral cortex, Membrane; details: Not Active = under 50% inhibition at 10 µM
[4] = biological target: T2, Neuropeptide Y receptor type 2 (Homo sapiens, UniProt P49146); assay type: cell membranes, Membrane; details: kan-ts; also: in other assays of this panel Not Active means under 50% inhibition at 10 µM
T2 sequence (P49146 whole entry): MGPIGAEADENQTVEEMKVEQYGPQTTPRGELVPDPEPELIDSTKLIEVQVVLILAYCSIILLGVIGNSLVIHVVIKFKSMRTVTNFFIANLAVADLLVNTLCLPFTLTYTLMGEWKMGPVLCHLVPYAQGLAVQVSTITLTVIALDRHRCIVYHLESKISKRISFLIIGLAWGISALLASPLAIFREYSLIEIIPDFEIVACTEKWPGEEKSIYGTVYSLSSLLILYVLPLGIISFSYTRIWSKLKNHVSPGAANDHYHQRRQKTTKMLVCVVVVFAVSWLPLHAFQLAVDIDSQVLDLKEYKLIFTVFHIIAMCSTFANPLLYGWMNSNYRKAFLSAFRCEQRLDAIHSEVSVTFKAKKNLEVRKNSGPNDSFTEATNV

Progesterone receptor = biological target: T3, Progesterone receptor (Bos taurus, UniProt Q690N0); experiment: DRUGMATRIX: Progesterone radioligand binding (ligand: [3H] R-5020); assay type: tissue-based, Uterus; details: Not Active = under 50% inhibition at 10 µM
T3 sequence (Q690N0 whole entry): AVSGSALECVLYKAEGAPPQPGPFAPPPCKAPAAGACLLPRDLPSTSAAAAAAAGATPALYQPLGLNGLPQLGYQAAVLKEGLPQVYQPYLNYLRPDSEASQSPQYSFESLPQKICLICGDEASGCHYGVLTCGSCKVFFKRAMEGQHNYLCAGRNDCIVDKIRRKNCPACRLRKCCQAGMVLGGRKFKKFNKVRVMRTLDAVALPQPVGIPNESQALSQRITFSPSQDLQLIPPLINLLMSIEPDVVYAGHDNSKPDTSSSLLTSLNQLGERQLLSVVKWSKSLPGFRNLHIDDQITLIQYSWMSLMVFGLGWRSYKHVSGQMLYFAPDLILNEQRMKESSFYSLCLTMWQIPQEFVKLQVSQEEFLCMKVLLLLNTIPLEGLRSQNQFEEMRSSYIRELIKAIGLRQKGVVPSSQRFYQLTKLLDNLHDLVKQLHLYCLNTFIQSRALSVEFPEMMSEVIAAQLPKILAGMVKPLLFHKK

Cytochrome P450 2C9 = Cytochrome P450 2C9 (Homo sapiens, UniProt P11712); details: bti-tn-5b1-4; also: in other assays of this panel Not Active means under 50% inhibition at 10 µM
Chain of Cytochrome P450 2C9 (P11712 whole entry): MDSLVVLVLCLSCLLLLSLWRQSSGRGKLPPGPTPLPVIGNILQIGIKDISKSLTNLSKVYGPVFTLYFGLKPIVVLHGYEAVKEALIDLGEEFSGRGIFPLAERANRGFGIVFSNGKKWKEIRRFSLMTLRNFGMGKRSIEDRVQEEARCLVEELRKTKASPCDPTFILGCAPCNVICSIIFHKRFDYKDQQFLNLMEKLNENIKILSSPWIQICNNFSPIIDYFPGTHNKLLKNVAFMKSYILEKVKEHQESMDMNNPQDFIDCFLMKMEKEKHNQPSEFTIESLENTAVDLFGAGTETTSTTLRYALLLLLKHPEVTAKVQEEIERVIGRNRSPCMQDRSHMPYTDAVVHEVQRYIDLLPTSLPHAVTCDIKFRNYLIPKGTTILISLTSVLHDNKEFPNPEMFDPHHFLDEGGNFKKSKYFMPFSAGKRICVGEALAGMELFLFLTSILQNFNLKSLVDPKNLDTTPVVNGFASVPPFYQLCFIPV

[5] = biological target: Voltage-gated inwardly rectifying potassium channel KCNH2 (Homo sapiens, UniProt Q12809); details: hek293; also: in other assays of this panel Not Active means under 50% inhibition at 10 µM
Chain of Voltage-gated inwardly rectifying potassium channel KCNH2 (Q12809 whole entry): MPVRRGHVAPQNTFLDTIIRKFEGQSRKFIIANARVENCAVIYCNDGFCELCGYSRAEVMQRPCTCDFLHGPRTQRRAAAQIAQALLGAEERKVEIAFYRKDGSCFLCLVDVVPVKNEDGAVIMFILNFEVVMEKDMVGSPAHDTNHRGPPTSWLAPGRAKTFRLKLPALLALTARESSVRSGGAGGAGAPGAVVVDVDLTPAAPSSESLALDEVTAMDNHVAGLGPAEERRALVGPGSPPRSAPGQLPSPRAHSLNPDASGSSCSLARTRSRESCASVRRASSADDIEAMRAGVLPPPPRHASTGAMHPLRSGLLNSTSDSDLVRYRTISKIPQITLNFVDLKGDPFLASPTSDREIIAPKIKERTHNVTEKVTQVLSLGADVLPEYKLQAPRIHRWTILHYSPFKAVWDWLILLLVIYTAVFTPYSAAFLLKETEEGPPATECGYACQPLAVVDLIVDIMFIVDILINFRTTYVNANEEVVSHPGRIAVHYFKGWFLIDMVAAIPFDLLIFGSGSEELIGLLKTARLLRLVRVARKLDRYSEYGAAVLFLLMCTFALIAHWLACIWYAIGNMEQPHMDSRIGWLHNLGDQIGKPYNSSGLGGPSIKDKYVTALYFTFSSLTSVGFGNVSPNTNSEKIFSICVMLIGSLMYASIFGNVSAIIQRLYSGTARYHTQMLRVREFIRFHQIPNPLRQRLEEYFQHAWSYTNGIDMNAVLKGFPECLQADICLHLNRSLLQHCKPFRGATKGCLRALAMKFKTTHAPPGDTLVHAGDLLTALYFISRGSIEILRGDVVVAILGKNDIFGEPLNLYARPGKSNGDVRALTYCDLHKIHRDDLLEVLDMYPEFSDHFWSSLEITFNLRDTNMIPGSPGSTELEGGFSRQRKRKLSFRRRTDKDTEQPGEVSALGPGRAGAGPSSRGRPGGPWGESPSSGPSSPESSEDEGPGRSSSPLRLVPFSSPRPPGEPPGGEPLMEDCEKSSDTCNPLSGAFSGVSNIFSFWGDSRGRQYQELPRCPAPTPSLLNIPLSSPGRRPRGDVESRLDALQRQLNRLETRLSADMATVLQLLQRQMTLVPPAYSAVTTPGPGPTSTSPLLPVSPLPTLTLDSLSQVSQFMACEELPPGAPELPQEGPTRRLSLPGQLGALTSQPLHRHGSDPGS

Chain of Sigma non-opioid intracellular receptor 1 (Q99720 whole entry): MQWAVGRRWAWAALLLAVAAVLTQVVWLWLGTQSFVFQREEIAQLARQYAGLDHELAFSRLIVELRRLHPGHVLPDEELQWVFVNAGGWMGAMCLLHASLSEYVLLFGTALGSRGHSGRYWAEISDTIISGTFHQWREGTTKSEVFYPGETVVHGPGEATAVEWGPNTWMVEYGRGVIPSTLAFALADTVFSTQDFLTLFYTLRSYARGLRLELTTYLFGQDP

Compound	IC50 ([1]; jurkat)	IC50 (Vasopressin V1a receptor)	IC50 [2]	IC50 [3]	Ki [3]	IC50 [4]	IC50 (Progesterone receptor)	IC50 (Cytochrome P450 2C9)	Ki (Cytochrome P450 2C9)	IC50 [5]	Ki [5]	IC50 (Progesterone receptor; read-out: IC50)	Ki (Progesterone receptor; read-out: Ki)	IC50 ([1]; read-out: IC50)	Ki ([1]; read-out: Ki)	Ki ([1]; jurkat)	Ki (Vasopressin V1a receptor)	Ki [2]	Ki [4]	Ki (Progesterone receptor)
CC(=O)Nc1cccc(O)c1 [METACETAMOL]	Not Active	Not Active	Not Active	Not Active	Not Active	Not Active	Not Active	Not Active	Not Active	Not Active	Not Active									
Cc1ncc([N+](=O)[O-])n1CCO [METRONIDAZOLE]	Not Active	Not Active	Not Active	Not Active	Not Active	Not Active	Not Active	Not Active	Not Active	Not Active	Not Active									
CC(C)(C(=O)c1cccnc1)c1cccnc1 [METYRAPONE]	Not Active	Not Active	Not Active	Not Active	Not Active	Not Active	Not Active	Not Active	Not Active	Not Active	Not Active									
CC(C)(Oc1ccc(C2CCCc3ccccc32)cc1)C(=O)O (centres undefined) [NAFENOPIN]	Not Active	Not Active	Not Active	Not Active	Not Active	Not Active	Not Active	Not Active	Not Active	Not Active	Not Active									
CC(C)[C@H]1CC[C@H](C(=O)N[C@H](Cc2ccccc2)C(=O)O)CC1 [NATEGLINIDE]	Not Active	Not Active	Not Active	Not Active	Not Active	Not Active	Not Active	Not Active	Not Active	Not Active	Not Active									
CCN[C@@H]1C[C@H](N)[C@@H](O[C@H]2OC(CN)=CC[C@H]2N)[C@H](O)[C@H]1O[C@H]1OC[C@](C)(O)[C@H](NC)[C@H]1O [NETILMICIN]	Not Active	Not Active	Not Active	Not Active	Not Active	Not Active	Not Active	Not Active	Not Active	Not Active	Not Active									
C#C[C@]1(OC(C)=O)CC[C@H]2[C@@H]3CCC4=CC(=O)CC[C@@H]4[C@H]3CC[C@@]21C [NORETHINDRONE ACETATE]	Not Active	Not Active	Not Active	Not Active	Not Active	Not Active		Not Active	Not Active	Not Active	Not Active	28 nM	3.62 nM							
COc1ccc2[nH]c([S+]([O-])Cc3ncc(C)c(OC)c3C)nc2c1 (centres undefined) [OMEPRAZOLE]	Not Active	Not Active	Not Active	Not Active	Not Active	Not Active	Not Active	Not Active	Not Active	Not Active	Not Active									
Cc1nccn1CC1CCc2c(c3ccccc3n2C)C1=O (centres undefined) [ONDANSETRON]	Not Active	Not Active	Not Active	Not Active	Not Active	Not Active	Not Active	Not Active	Not Active	Not Active	Not Active									
CCN(CC)CCOC(=O)c1ccc(N)cc1 [PROCAINE]	Not Active	Not Active	Not Active	Not Active	Not Active	Not Active	Not Active	Not Active	Not Active	Not Active	Not Active									
CCCN(CCC)C(=O)C(CCC(=O)O)NC(=O)c1ccccc1 (centres undefined) [PROGLUMIDE]	Not Active	Not Active	Not Active	Not Active	Not Active	Not Active	Not Active	Not Active	Not Active	Not Active	Not Active									
NC(=O)c1cnccn1 [PYRAZINAMIDE]	Not Active	Not Active	Not Active	Not Active	Not Active	Not Active	Not Active	Not Active	Not Active	Not Active	Not Active									
OC(CCN1CCCCC1)(c1ccccc1)C1CCCCC1 (centres undefined) [TRIHEXYPHENIDYL]		Not Active	Not Active	Not Active	Not Active	Not Active	Not Active	Not Active	Not Active	Not Active	Not Active			108 nM	45 nM					
Cc1cc2cc3c(C)cc(=O)oc3c(C)c2o1 [TRIOXSALEN]	Not Active	Not Active	Not Active	Not Active	Not Active	Not Active	Not Active	Not Active	Not Active	Not Active	Not Active									
CCCC(CCC)C(=O)O [VALPROIC ACID]	Not Active	Not Active	Not Active	Not Active	Not Active	Not Active	Not Active	Not Active	Not Active	Not Active	Not Active									
CCC1=C[C@@H]2CN(C1)Cc1c([nH]c3ccccc13)[C@@](C(=O)OC)(c1cc3c(cc1OC)N(C)[C@H]1[C@@](O)(C(=O)OC)[C@H](OC(C)=O)[C@]4(CC)C=CCN5CC[C@]31[C@@H]54)C2 [VINORELBINE]	Not Active	Not Active	Not Active	Not Active	Not Active	Not Active	Not Active	Not Active	Not Active	Not Active	Not Active									
CADMIUM DICHLORIDE	Not Active	Not Active	Not Active	Not Active	Not Active	Not Active	Not Active	Not Active	Not Active	Not Active	Not Active					Not Active	Not Active	Not Active	Not Active	Not Active
